Patent US9358220B2, “Method of treating acne” (THESAN PHARMACEUTICALS, INC., priority 2008, dated 2016)
Like-named read-outs stand apart in the source and are kept apart here.

Key:
CYPlAl [1] = assay: CYP1A1 activity test (P450-GLO assay) in Hep G2 cells
Method: The tests are carried out using the P450-GLO assay kit from Promega. At D0, the cells are seeded at a density of approximately 60% confluence, and then treated at Dl with the test substance diluted to various concentrations in the appropriate culture medium. At D2, the CYPlAl activity is measured as recommended by the supplier, using the nonlytic protocol on a cell monolayer.

AhR [2] = target: T1, AhR (Homo sapiens, UniProt P35869); assay: AhR activation test, luciferase reporter plox-XRE TATA-Luc in HEP G2 cells; assay type: cell-based; parameters: endogenous in cells; host or cells: Hep G2 cells transduced with the reporter lentivector plox-XRE TATA-Luc; details: for AhR percentage activation compared to 0.01 μM TCDD: HEP G2 cells, most active concentration in the range tested
T1 sequence (P35869 11-848): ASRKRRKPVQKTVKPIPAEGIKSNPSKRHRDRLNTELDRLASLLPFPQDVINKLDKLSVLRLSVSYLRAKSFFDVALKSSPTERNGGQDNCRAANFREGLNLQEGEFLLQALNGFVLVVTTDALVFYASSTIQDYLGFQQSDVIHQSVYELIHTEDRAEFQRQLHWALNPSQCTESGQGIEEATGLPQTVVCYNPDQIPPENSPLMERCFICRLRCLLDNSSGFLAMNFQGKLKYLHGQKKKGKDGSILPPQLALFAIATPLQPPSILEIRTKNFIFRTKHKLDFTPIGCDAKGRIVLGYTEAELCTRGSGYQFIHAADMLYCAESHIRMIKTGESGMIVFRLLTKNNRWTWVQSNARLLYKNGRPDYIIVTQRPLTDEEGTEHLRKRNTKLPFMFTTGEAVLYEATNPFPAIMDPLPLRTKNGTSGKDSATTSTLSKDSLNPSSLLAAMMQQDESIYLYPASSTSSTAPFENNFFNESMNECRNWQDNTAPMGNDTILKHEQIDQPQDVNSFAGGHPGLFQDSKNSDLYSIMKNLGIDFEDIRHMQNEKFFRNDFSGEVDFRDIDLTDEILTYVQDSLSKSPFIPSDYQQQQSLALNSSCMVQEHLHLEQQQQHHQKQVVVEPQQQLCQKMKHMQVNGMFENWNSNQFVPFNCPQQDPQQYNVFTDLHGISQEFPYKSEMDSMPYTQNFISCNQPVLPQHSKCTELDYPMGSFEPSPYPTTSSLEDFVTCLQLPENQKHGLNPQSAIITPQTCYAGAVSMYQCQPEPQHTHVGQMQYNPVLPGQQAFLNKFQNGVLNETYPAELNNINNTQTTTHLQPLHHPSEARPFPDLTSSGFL
Method: (§1) The Hep G2 cells are cultured in DMEM (Gibco)+10% fetal bovine serum+penicillin+streptomycin, the NHKs in keratinocyte SFM medium (Gibco)+penicillin+streptomycin. At DO, the Hep G2 cells are seeded into 12-well plates in a proportion of approximately 30 000 cells/cm^2. The NHKs are seeded into 6-well plates in a proportion of approximately 15 000 cells/cm^2. After 24 h, the medium is replaced with fresh medium and the cells are transduced with the lentivector plox-XRE TATA-Luc. After 48 h, the cells are subcultured and maintained in culture, and tested for their reactivity to TCDD.
The tests are carried out using the luciferase reporter assay system kit from Promega. At DO, the cells are seeded at a density of approximately 60% confluence, and then treated, at Dl, with the test substance diluted to various concentrations in the appropriate culture medium. At D2, the cells are lysed in CLB buffer, and the lysate is clarified by centrifugation for 5 min at 10 000 g. The luciferase activity is measured in 20 microliters of lysate as recommended by the supplier, using the luminoskan luminometer (Thermo).

sebaceous glands [3] = assay: Sebaceous glands in the ear skin of C57BL/6 mice after topical application; assay type: in vivo
Text: The effect on the sebaceous glands can be reproduced in animals by topical application of TCDD. A 95% reduction in the number of sebaceous glands can be observed in C57BL/6 mice after 45 days of application of 2 mcg/ml TCDD (FIG. 2).
To reproduce the useful effect of TCDD, in a therapeutic reduction approach the reduction in the surface area of the sebaceous glands in the ears of C57BL/6 mice treated once a day for 45 d with various ligands according to the invention can be studied. The surface area of the sebaceous glands is measured on three serial sections per animal. A reduction of greater than 40% is sought, and obtained here with a concentration, a treatment time and an application frequency considered to be minimal. Isotretinoin is shown by way of example of a product used for the topical and systemic treatment of acne.
The topical application of an AhR ligand such as 6-formylindolo[3,2-b]carbazole (FICZ), at a concentration of 100 mcg/ml, makes it possible to obtain a significant decrease in the sebaceous glands, of the order of 40%. Other ligands according to the invention (see FIGS. 14, 15 and 17) also lead to a decrease in the surface area of the sebaceous glands.

human keratinocytes = assay: Wound healing in vitro on a culture of human keratinocytes (migration index); assay type: cell-based
Method: The wound is induced by means of an incision with a yellow micropipette tip (10-200 μl). Migration index value obtained with the ligand/that of the control without ligand. […] This indicates an activity of the AhR activation pathway on the migration of keratinocytes which is found in vivo in humans (FIGS. 5, 6, 10).

sebaceous glands [4] = assay: Sebaceous glands in biopsies of human skin exposed to TCDD (histology); assay type: in vivo; details: human skin containing 930 to 2900 ppt of TCDD; 62 biopsies, 620 sections
Method: The sebaceous glands, which are present in large numbers in normal human skin, disappear during exposure to toxic doses of TCDD. […] Thus, on the face of an adult, the number is between 400 and 900/cm^2.
For each site, 3 to 10 skin biopsies were analyzed after fixing with formol and staining with hematin-eosin. At least 10 sections per block were analyzed.

dermabrasions = assay: Healing of superficial epidermal-dermal wounds (dermabrasions) in human skin containing TCDD; assay type: in vivo
Text: Thus, the time to complete healing is reduced from 9.3 to 5 days.

CYPlAl [5] = assay: CYP1A1 activity test (P450-GLO assay) in NHK cells; assay type: cell-based, human; details: 10 nM, 24 h
human skin [6] = assay: Messenger RNA expression (RT PCR, transcriptome) in human skin exposed to TCDD; assay type: in vivo
Text: This observation identifies a new target for medicaments aimed at modulating sebaceous function, a concept exemplified here by AhR activation.
The expression of the messenger RNAs of vascular endothelial growth factors (VEGFs) and of their receptors is increased in skin exposed to TCDD.
The expression of the messenger RNAs of the various estrogen receptors ESRR and ER, of the estrogen responsive finger protein (EFP) ligase and of the estrogen-producing aromatase enzyme is increased in skin exposed to TCDD.

human skin [7] = assay: Estradiol (E2) concentration in human skin exposed to TCDD by ELISA; assay type: in vivo; details: human skin containing 1800 ppt of TCDD versus controls
[8] = system: staphylococcus sp, P. acnes; assay: Bacterial colonization of human skin exposed to TCDD (CFU per cm^2); assay type: in vivo
[9] = human organism; cited from earlier work
AhR [10] = target: T1, AhR; assay: Test for potentiation by bacterial flora: AhR activation in HEP G2 cells with skin bacteria extracts and tryptophan; assay type: cell-based; parameters: endogenous in cells; host or cells: Hep G2 cells transduced with the reporter lentivector plox-XRE TATA-Luc
Method: The activation value 25.00 on the Y-axis corresponds to ⅙ of the AhR stimulation by 10 nM TCDD in this same system (157.00).

AhR [11] = target: T1, AhR; assay: AhR activation test, luciferase reporter plox-XRE TATA-Luc in normal human keratinocytes; assay type: cell-based; parameters: endogenous in cells; host or cells: normal human keratinocytes (NHKs) transduced with the reporter lentivector plox-XRE TATA-Luc; details: NHK-plox-XRE TATA-Luc cells, 10 nM, 24 h
Method: FIGS. 14, 15 and 16 show AhR activation in HEP G2 cells and normal human keratinocytes (NHKs) stably transfected with the lentivector plox-XRE TATA-Luc.
as §1
The tests are carried out using the luciferase reporter assay system kit from Promega. […] At D2, the cells are lysed in CLB buffer, and the lysate is clarified by centrifugation for 5 min at 10 000 g. The luciferase activity is measured in 20 microliters of lysate as recommended by the supplier, using the luminoskan luminometer (Thermo).
Similar results are noted.

seborrhea = assay: Sebumetric measurement of casual sebum levels on the face of hyperseborrheic men; assay type: in vivo, human; details: gel containing 1% tryptophan on the face of two hyperseborrheic men for 3 weeks
Text: The effect shown in FIG. 16, where it is seen that Propionibacterium acnes (PA) generates an AhR activation, which is highly accentuated by the addition of tryptophan, can be taken advantage of in the context of this invention. This is because PA is one of the key players in sebaceous gland diseases, and it is present in large amounts in facial skin. It could therefore contribute to producing therapeutic amounts of AhR ligands in the presence of tryptophan, or also other aromatic amino acids such as tyrosine and phenylalanine. In order to explore the relevance of this approach, the applicant carried out a test by applying a gel containing 1% tryptophan to the face of two hyperseborrheic men for 3 weeks, and observed a decrease in the seborrhea which could be evaluated at 40% of the starting value using sebumetric measurement of the casual sebum levels.

chronic wounds = assay: Chronic human leg wounds with dermatoporosis treated with tryptophan gel; assay type: in vivo
[12] = human skin containing 1800 ppt of TCDD versus controls

Structure (SMILES): CCOC(=O)c1cc2c(cn1)[nH]c1ccccc12 [B-CCE, Ethyl β-carboline-3-carboxylate]
- induction of CYPlAl activity by ligands according to the invention (CYPlAl [1]; FIG. 17, cell type not stated for the ligands): induction of this AhR-dependent biological activity
- AhR percentage activation compared to 0.01 μM TCDD (AhR [2]): greatest activities

Structure (SMILES): O=Cc1c2c(cc3c1=Nc1ccccc1-3)=Nc1ccccc1-2 [FICZ, 6-Formylindolo[3,2-b]carbazole]
- decrease in the sebaceous glands (sebaceous glands [3]; C57BL/6 mice ears, topical 100 mcg/ml, once a day for 45 d): ~40%
- effect on healing at the highest concentrations (human keratinocytes): a decrease in the effect, or even an inhibition of healing
- stimulation of healing (migration index) (human keratinocytes; μM concentrations): strong stimulation of healing
- AhR percentage activation compared to 0.01 μM TCDD (AhR [2]): greatest activities

Structure (SMILES): Clc1cc2c(cc1Cl)Oc1cc(Cl)c(Cl)cc1O2 [TCDD, 2,3,7,8-tetrachlorodibenzo-p-dioxin]
- sebaceous glands observed in skin biopsies (sebaceous glands [4]): no sebaceous gland could be observed
- reduction in the number of sebaceous glands (sebaceous glands [3]; C57BL/6 mice, topical 2 mcg/ml, 45 days): 95%
- time in which epidermal-dermal wounds are covered (dermabrasions; human exposed to TCDD, average healing time ordinarily 10 days): 3 days
- time to complete healing of dermabrasions (dermabrasions; human skin with 930 to 2900 ppt TCDD, controls 9.3 days): 5 days
- effect on healing at the highest concentrations (human keratinocytes): a decrease in the effect, or even an inhibition of healing
- stimulation of healing (migration index) (human keratinocytes; nM concentrations): strong stimulation of healing
- induction of the CYPlAl activity (CYPlAl [1]; Hep G2 cells, 10 nM, 24 h): 250 fold
- induction of the CYPlAl activity (CYPlAl [5]): 20 fold
- expression of messenger RNAs of estrogen receptors ESRR and ER, EFP ligase and aromatase (human skin [6]; [12]): increased
- expression of messenger RNAs of vascular endothelial growth factors (VEGFs) and their receptors (human skin [6]; [12]): increased
- hyaluronate in the dermis (human skin [6]; human skin exposed to TCDD): very substantial accumulation of hyaluronate in the dermis
- messenger RNAs of sebaceous lipogenesis enzymes (human skin [6]; human skin exposed to TCDD, whole transcriptome): considerable reduction
- concentration of estradiol (E2) in skin (human skin [7]): increase in the concentration of estradiol
- P. acnes colonization of skin ([8]; human skin exposed to TCDD): same effect is observed
- colonization of skin by staphylococcus sp (CFU per cm^2) ([8]; human with more than 900 ppt of TCDD in the skin, 4 samples 1 month apart): very greatly decreased
- half-life in human tissues [9]: 4-12 years
- induction of the luciferase activity (AhR [2]; Hep G2-plox-XRE TATA-Luc cells, 10 nM, 24 h): 100 fold
- AhR stimulation (activation value on the Y-axis) (AhR [10]; 10 nM): 157.00
- induction of the luciferase activity (AhR [11]): 10 fold

Structure (SMILES): COc1ccccc1OCCNCC(O)COc1cccc2[nH]c3ccccc3c12 (stereo not shown) [carvedilol, Carvedilol]
- induction of CYPlAl activity by ligands according to the invention (CYPlAl [1]): induction of this AhR-dependent biological activity

Structure (SMILES): O=c1cc(O)cc(/C=C/c2ccc(O)c(O)c2)o1 [hispidin, Hispidin]
- AhR percentage activation compared to 0.01 μM TCDD (AhR [2]): greatest activities

Structure (SMILES): O=c1c2ccccc2nc2n1CCc1c-2[nH]c2ccccc12 [rutaecarpine, Rutaecarpine]
- induction of CYPlAl activity by ligands according to the invention (CYPlAl [1]): induction of this AhR-dependent biological activity

Structure (SMILES): N[C@@H](Cc1c[nH]c2ccccc12)C(=O)O [tryptophan]
- decrease in the seborrhea (casual sebum levels), of the starting value (seborrhea): 40%
- stimulation of healing (migration index) (human keratinocytes; μM concentrations): strong stimulation of healing
- dermatoporotic skin around the wound (chronic wounds): thickening of the dermatoporotic skin around the wound
- healing of chronic wounds (chronic wounds; series of 10 cases of chronic wounds on legs): Contraction of chronic wounds and the development of epithelial healing
- AhR percentage activation compared to 0.01 μM TCDD (AhR [2]): greatest activities
- AhR activation with bacterial extract on addition of tryptophan (AhR [10]; in particular with P. acnes extract): an increase in the activation is observed
